Measurements: patent publication US20250288587A1, “Methods of Treating Fibrosis” (Athira Pharma, Inc., priority 2022, published 2025)

Tests used:
CFA-stimulated rats [1] = experiment: CFA inflammatory pain model, thermal hyperalgesia (Hargreaves method); assay type: in vivo; parameters: key to Thermal Hyperalgesia, change in sensitivity compared to CFA alone: NS = no statistically significant change in sensitivity compared to CFA alone; + = statistically significant change in sensitivity compared to CFA alone, p < 0.05; settings: 0.025 mg/kg PO daily; Day 3, 1 h post-dose
CFA-stimulated rats [2] = experiment: CFA inflammatory pain model, mechanical allodynia (von Frey test); assay type: in vivo; parameters: key to Mechanical Allodynia, change in sensitivity compared to CFA alone / Mechanical Allodynia, significant reduction in pain behavior vs CFA alone: NS = no statistically significant change in sensitivity compared to CFA alone; + = statistically significant change in sensitivity compared to CFA alone, p < 0.05
Protocol: (§1) Response to peripheral inflammatory stimulus can be modeled by administering complete Freund's adjuvant (CFA), a suspension of desiccated mycobacterium in paraffin oil and mannide monooleate, by subcutaneous injection into the rat's footpad. The introduction of CFA to peripheral tissues leads to a rapid, sustained, inflammatory reaction in the treated tissue within 24 hours. Subcutaneous administration of CFA in the plantar region of the paw induces inflammatory pain behaviors that persist for at least 8 days. CFA treatment also leads to the accumulation of inflammatory cytokines in paw tissue at the site of injury, which, if unresolved, can lead to formation of fibrotic tissue. The extent of inflammatory response to CFA can be assessed by quantification of inflammatory cytokines in paw skin lysate, and inflammatory pain behaviors by mechanical allodynia (von Frey test) and thermal hyperalgesia (Hargreaves test).
(§2) In one study, Compound 2a was tested for its ability to reduce inflammatory pain behaviors in the CFA inflammation model. On study day 0, […] of CFA was administered subcutaneously in the plantar of the right hind paw. Animals were treated daily with Compound 2a in solution via oral gavage (PO) at doses of 1, 0.1, and 0.025 mg/kg. Treatment began before CFA injection on study day −1 and continued through study day 8.
Mechanical allodynia was measured using the von Frey test. In this test, rats were placed on a wire mesh and a series of filaments designed to deliver probing force ranging from 4 to 26 grams were applied to the mid-plantar surface of the right hind paw. Animals indicated pain response by lifting the probed paw. The minimal force required to elicit the withdrawal response was recorded as the paw withdrawal threshold (PWT). Von Frey testing was performed 1 hour after Compound 2a dosing on study day 1, 3, and 7, and was also tested pre-dosing on day 7. Statistical analysis was performed using a 1-way ANOVA with Tukey post-test. A p-value below 0.05 was considered statistically significant. Control animals stimulated with CFA but treated with only vehicle had high sensitivity to mechanical stimulation compared to normal control animals.
(§3) In another study, Compounds 1a, 5a, and 6a were similarly tested against CFA-induced inflammatory stimulation in the right hind foot for their ability to reduce pain behaviors. This study also included quantification of inflammatory cytokine expression in paw skin lysate. Inflammatory pain stimulation with CFA injection and assessment of mechanical and thermal pain behaviors were performed as described above, with the exception that only post-dose pain behavior testing is reported.
(§4) Intraplantar CFA injection occurred at day 0. Treatment with Compounds 1a, 5a, and 6a occurred at days −2, 1, 3, and 7. At day 8, the rats were terminated and cytokine levels were measured in paw skin and plasma. Tissue from paw bone, joint, and muscle were obtained for H&E staining and analysis. Cytokine levels in test compound-treated animals were compared to CFA-stimulated animals. Analytes included interleukin 4 (IL-4), tumor necrosis factor alpha (TNF-α) and interferon gamma (IFN-γ). Statistical analysis consisted of 1-way ANOVA followed by Dunnett's multiple comparisons post-test. Mechanical allodynia and thermal hyperalgesia were tested 1 hour post-dosing on days 1, 3, and 7. PWT refers to […] paw withdrawal threshold where a higher value corresponds to a higher pain threshold. PWL refers to […] paw withdrawal latency where a higher value corresponds to a higher pain threshold.

MRC-5 cells = experiment: TGFβ-stimulated αSMA expression in MRC-5 cells (HTRF); assay type: cell-based; parameters: key to Significant reduction in αSMA via HTRF compared to TGFβ alone: NS = no statistically significant change in aSMA expression; + = p < 0.05; ++ = p < 0.01; +++ = p < 0.005; ++++ = p < 0.001; settings: for Significant reduction in αSMA via HTRF compared to TGFβ alone: TGFβ 1 ng/ml, HGF 0.01 ng/ml, 48 h
Protocol: In this study, pulmonary-derived immortalized fibroblasts, MRC-5 cells, were cultured as a model of the early transition to fibrosis, and αSMA expression was measured using an immunodetection system driven by homogenous time-resolved fluorescence (HTRF) technology. This detection system produces a fluorescent signal in the presence of αSMA in cell lysates. Cells were grown to confluence in 96-well culture plates in complete media, and then transitioned to serum-free media for 2 hours. Next TGFβ (final 1 ng/ml in serum-free media) was added to the cells to stimulate the fibrotic transition. After 2 hours, media containing either HGF or HGF combined with one of the compounds was added to the cells. After incubation for 48 hours, cells were lysed and processed for αSMA HTRF to detect the levels of αSMA expression and compared to TGFβ-stimulated cultures. Statistical analysis consisted of 1-way ANOVA with a Dunnett's multiple comparison's post-test.

CFA-stimulated rats [3] = experiment: CFA inflammatory pain model, thermal hyperalgesia (Hargreaves method); assay type: in vivo; parameters: key to Thermal Hyperalgesia, change in sensitivity compared to CFA alone / Thermal Hyperalgesia, significant reduction in pain behavior vs CFA alone: NS = no statistically significant change in sensitivity compared to CFA alone; + = statistically significant change in sensitivity compared to CFA alone, p < 0.05
Protocol: as §1, §2
Thermal hyperalgesia was measured using the Hargreaves method. A temperature ramp was applied to the right hind paw and the paw withdrawal latency (PWL) was recorded as a measure of sensitivity to thermal stimulation. […] Statistical analysis was performed using a 1-way ANOVA with Tukey post-test. A p-value below 0.05 was considered statistically significant.
as §3, §4

[4] = 0.025 mg/kg PO daily, Day 1, 1 h post-dose
[5] = 0.025 mg/kg PO daily, Day 7 post-dose
[6] = 0.025 mg/kg PO daily, Day 7 pre-dose
[7] = 0.1 mg/kg PO daily, Day 1, 1 h post-dose
[8] = 0.1 mg/kg PO daily, Day 3, 1 h post-dose
[9] = 0.1 mg/kg PO daily, Day 7 post-dose
[10] = 0.1 mg/kg PO daily, Day 7 pre-dose
[11] = 1 mg/kg PO daily, Day 1, 1 h post-dose
[12] = 1 mg/kg PO daily, Day 3, 1 h post-dose
[13] = 1 mg/kg PO daily, Day 7 post-dose
[14] = 1 mg/kg PO daily, Day 7 pre-dose

SMILES: CCC(C)CN1CC2N(C(=O)c3ccc(OC(F)F)cc3)CCC(=O)N2[C@@H](C)C1=O (some centres unmarked) [Compound 2a]
- Thermal Hyperalgesia, change in sensitivity compared to CFA alone (CFA-stimulated rats [1]): NS
- Mechanical Allodynia, change in sensitivity compared to CFA alone (CFA-stimulated rats [2]; [4]): NS
- Mechanical Allodynia, change in sensitivity compared to CFA alone (CFA-stimulated rats [2]; 0.025 mg/kg PO daily, Day 3, 1 h post-dose): NS
- Mechanical Allodynia, change in sensitivity compared to CFA alone (CFA-stimulated rats [2]; [5]): NS
- Mechanical Allodynia, change in sensitivity compared to CFA alone (CFA-stimulated rats [2]; [6]): NS
- Mechanical Allodynia, change in sensitivity compared to CFA alone (CFA-stimulated rats [2]; [7]): NS
- Mechanical Allodynia, change in sensitivity compared to CFA alone (CFA-stimulated rats [2]; [8]): NS
- Mechanical Allodynia, change in sensitivity compared to CFA alone (CFA-stimulated rats [2]; [9]): NS
- Mechanical Allodynia, change in sensitivity compared to CFA alone (CFA-stimulated rats [2]; [10]): NS
- Mechanical Allodynia, change in sensitivity compared to CFA alone (CFA-stimulated rats [2]; [11]): NS
- Mechanical Allodynia, change in sensitivity compared to CFA alone (CFA-stimulated rats [2]; [12]): NS
- Mechanical Allodynia, change in sensitivity compared to CFA alone (CFA-stimulated rats [2]; [13]): + (+ = statistically significant change in sensitivity compared to CFA alone, p < 0.05)
- Mechanical Allodynia, change in sensitivity compared to CFA alone (CFA-stimulated rats [2]; [14]): NS
- mechanical allodynia (paw withdrawal threshold) (CFA-stimulated rats [2]; 1 mg/kg, study day 7, post-dose testing): reduced mechanical allodynia
- αSMA expression (MRC-5 cells; 1 uM, combined with 0.01 ng/ml HGF): significantly reduced αSMA
- Significant reduction in αSMA via HTRF compared to TGFβ alone (MRC-5 cells; test compound 1 nM): NS
- Significant reduction in αSMA via HTRF compared to TGFβ alone (MRC-5 cells; test compound 1 μM): ++++ (++++ = p < 0.001)
- Thermal Hyperalgesia, change in sensitivity compared to CFA alone (CFA-stimulated rats [3]; [4]): NS
- Thermal Hyperalgesia, change in sensitivity compared to CFA alone (CFA-stimulated rats [3]; [5]): NS
- Thermal Hyperalgesia, change in sensitivity compared to CFA alone (CFA-stimulated rats [3]; [6]): NS
- Thermal Hyperalgesia, change in sensitivity compared to CFA alone (CFA-stimulated rats [3]; [7]): NS
- Thermal Hyperalgesia, change in sensitivity compared to CFA alone (CFA-stimulated rats [3]; [8]): NS
- Thermal Hyperalgesia, change in sensitivity compared to CFA alone (CFA-stimulated rats [3]; [9]): NS
- Thermal Hyperalgesia, change in sensitivity compared to CFA alone (CFA-stimulated rats [3]; [10]): NS
- Thermal Hyperalgesia, change in sensitivity compared to CFA alone (CFA-stimulated rats [3]; [11]): NS
- Thermal Hyperalgesia, change in sensitivity compared to CFA alone (CFA-stimulated rats [3]; [12]): + (+ = statistically significant change in sensitivity compared to CFA alone, p < 0.05)
- Thermal Hyperalgesia, change in sensitivity compared to CFA alone (CFA-stimulated rats [3]; [13]): NS
- Thermal Hyperalgesia, change in sensitivity compared to CFA alone (CFA-stimulated rats [3]; [14]): + (+ = statistically significant change in sensitivity compared to CFA alone, p < 0.05)
- thermal sensitivity (paw withdrawal latency) (CFA-stimulated rats [3]; 1 mg/kg, day 3 and pre-dose testing on day 7): reduced thermal sensitivity
